Source: PubChem BioAssay (NCI)
“And” between values parts separate entries of the source, which are not always exact repeats. Identical values can stand only once.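 Interpolation was linear, between the two tested concentrations surrounding the appropriate level; five concentrations were tested over 48 hours in 96-well plates. Here, GI50 denotes the concentration required for 50% inhibition of growth. TGI is the concentration that stops growth completely.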

Legend:
Assay in all cases: NCI tumour cell line growth inhibition, 48 h
UO-31 renal = test system: UO-31 renal
HT29 colon = test system: HT29 colon
RPMI-8226 leukemia = test system: RPMI-8226 leukemia
EKVX NSCLC = test system: EKVX NSCLC
SR leukemia = test system: SR leukemia
NCI-H226 lung = test system: NCI-H226 lung
HCT-15 colon = test system: HCT-15 colon
BT-549 breast = test system: BT-549 breast
PC-3 prostate = test system: PC-3 prostate
MDA-MB-231 breast = test system: MDA-MB-231 breast

SMILES	TGI (UO-31 renal)	TGI (HT29 colon)	TGI (RPMI-8226 leukemia)	TGI (EKVX NSCLC)	TGI (SR leukemia)	TGI (NCI-H226 lung)	TGI (HCT-15 colon)	GI50 (BT-549 breast)	TGI (BT-549 breast)	GI50 (UO-31 renal)	GI50 (HT29 colon)	GI50 (PC-3 prostate)	TGI (PC-3 prostate)	GI50 (RPMI-8226 leukemia)	GI50 (NCI-H226 lung)	GI50 (MDA-MB-231 breast)	TGI (MDA-MB-231 breast)	GI50 (SR leukemia)	GI50 (HCT-15 colon)	GI50 (EKVX NSCLC)
C[N+](C)(C)CC(=O)N/N=C/c1oc(-c2cccc([N+](=O)[O-])c2)c(-c2cccc([N+](=O)[O-])c2)c1[N+](=O)[O-]	> 100 µM	> 100 µM	55.3 µM	> 100 µM	> 100 µM	–	–	–	–	–	–	–	–	–	–	–	–	–	–	–
Cc1nn2c(=O)n(-c3cccc(-n4nnc5c(-c6ccccc6)c(C)nn5c4=O)c3C)nnc2c1-c1ccccc1	> 100 µM	> 100 µM	96.4 µM	> 100 µM	55.8 µM	> 100 µM	63.8 µM	–	–	–	–	–	–	–	–	–	–	–	–	–
C[C@@H](Oc1cc(-c2cnn(C3CC4(CNC4)C3)c2)cnc1N)c1c(Cl)ccc(F)c1Cl	18.3 µM	5.98 µM	13 µM	–	2.05 µM	24.3 µM	15.1 µM	6.49 µM	19.4 µM	4.96 µM	1.7 µM	2.64 µM	15.6 µM	3.22 µM	6.81 µM	2.23 µM	14.4 µM	0.0769 µM	4.04 µM	–
CN=c1ss/c(=N\C(=S)N(C)C)n1C1CCCCC1	> 31.6 µM	> 31.6 µM	> 100 µM	> 31.6 µM	–	> 31.6 µM	> 31.6 µM	–	–	–	–	–	–	–	–	–	–	–	–	–
CN(C(=O)C12C3C4C1C1C2C3C41C(=O)N(C)C(C)(C)C)C(C)(C)C (stereo not given)	> 50 µM	> 50 µM	–	> 50 µM	> 50 µM	–	> 50 µM	–	–	–	–	–	–	–	–	–	–	–	–	–
O=C(Cc1nc2ccc(C(=O)c3ccccc3)cc2[nH]c1=O)C(=O)Nc1ccc(C(F)(F)F)cc1[N+](=O)[O-]	> 100 µM	> 100 µM	> 100 µM	> 100 µM	> 100 µM	> 100 µM	> 100 µM	–	–	–	–	–	–	–	–	–	–	–	–	–
COc1ccc(/C=C/c2ccnc3ccccc23)cc1	0.0937 µM	23.1 µM	45 µM	25.8 µM	61.1 µM	38.2 µM	39.6 µM	–	–	–	–	–	39.7 µM	–	–	–	–	–	–	–
COc1cc(-c2nccc3[nH]c(-c4cccc5[nH]ccc45)nc23)cc(OC)c1OC	16.2 µM	1.26 µM	2.91 µM	22 µM	10.4 µM	22.5 µM	12 µM	–	–	0.124 µM	< 0.01 µM	< 0.01 µM	15.7 µM	< 0.01 µM	4.06 µM	< 0.01 µM	17.1 µM	< 0.01 µM	< 0.01 µM	0.0186 µM
CC[C@@]1(OC(=O)C(N)CCC(=O)O)C(=O)OCc2c1cc1n(c2=O)Cc2cc3ccccc3nc2-1 (stereo not given in full)	0.746 µM	> 100 µM	2.94 µM	> 57.8 µM	–	0.192 µM	> 100 µM	–	> 100 µM	–	–	–	> 100 µM	–	–	–	5.82 µM	–	–	–
Cc1ccc(SC2C(C)(C)N(C(C)C)P2(=O)N(C(C)C)C(C)C)cc1 (stereo not given)	> 100 µM	> 100 µM	36.8 µM	97.3 µM	31.4 µM	> 100 µM	> 100 µM	–	–	–	–	–	–	–	–	–	–	–	–	–
O=C1C=CC(=O)c2c1cc1ccccc1c2O	9.11 µM	24 µM	> 26 µM	22.8 µM	–	37.6 µM	13.3 µM	–	21.6 µM	–	–	–	19.1 µM	–	–	–	4.25 µM	–	–	–
O=c1[nH]cc(CO)c(=O)[nH]1	> 100 µM	> 100 µM	–	–	> 100 µM	–	> 100 µM	> 100 µM	> 100 µM	> 100 µM	> 100 µM	> 100 µM	> 100 µM	–	–	> 100 µM	> 100 µM	> 100 µM	> 100 µM	–
O=C(NC1CCNCC1)c1[nH]ncc1NC(=O)c1c(Cl)cccc1Cl	> 76.6 µM	6.29 µM and > 10 µM	0.999 µM and > 2.62 µM	> 10 µM	–	4.01 µM and 2.32 µM	> 100 µM	0.588 µM and 0.471 µM	7.89 µM	16.7 µM and > 7.2 µM	0.398 µM and 0.406 µM	0.332 µM and 0.323 µM	5.01 µM and > 10 µM	0.329 µM and 0.313 µM	0.346 µM and 0.325 µM	0.312 µM and 0.276 µM	2.07 µM and > 3.95 µM	–	9.83 µM and 9.93 µM	0.998 µM
O=C1NC(=O)C(N2CCc3ccccc32)=C1c1ccc(Cl)cc1	> 25 µM	> 25 µM	> 25 µM	> 25 µM	–	> 25 µM	> 25 µM	> 15.5 µM	> 25 µM	> 17.3 µM	> 25 µM	> 22.8 µM	> 25 µM	> 25 µM	> 25 µM	> 25 µM	> 25 µM	–	> 25 µM	> 24.1 µM
CCOC(=O)C/C(N)=C(\C#N)C(=O)OCC	> 100 µM	> 100 µM	> 100 µM	> 100 µM	> 100 µM	> 100 µM	> 100 µM	–	–	–	–	–	–	–	–	–	–	–	–	–
O=S1c2ccccc2N=C(c2ccc3ccccc3c2)CC1c1ccccc1F (stereo not given)	> 100 µM	> 100 µM	> 100 µM	> 100 µM	–	> 100 µM	> 100 µM	–	–	–	–	–	–	–	–	–	–	–	–	–
COc1cc(C2CC(=O)c3c(C)nn(-c4nc5ccccc5[nH]4)c3C2)cc(OC)c1OC (stereo not given)	–	> 100 µM	> 100 µM	–	> 100 µM	–	> 100 µM	76.6 µM	> 100 µM	–	> 100 µM	> 100 µM	> 100 µM	> 100 µM	–	–	–	> 100 µM	> 100 µM	–
CCN1CCN(CC(=O)Nc2nc3ccc(NCc4ccc(C)cc4)cc3s2)CC1	10.8 µM	3.48 µM	3.34 µM	13.8 µM	8.37 µM	18.8 µM	2.47 µM	6.45 µM	19.3 µM	2.57 µM	1.27 µM	–	–	1.09 µM	7.77 µM	2.72 µM	10 µM	1.8 µM	1.04 µM	5.67 µM
OC1=CN=C(C2CC2)Oc2ccccc21	> 100 µM	> 100 µM	> 100 µM	> 100 µM	–	> 100 µM	> 100 µM	–	–	–	–	–	–	–	–	–	–	–	–	–
CC(C)(C)C1CCP(=O)(c2ccccc2)CC1 (stereo not given)	> 100 µM	> 100 µM	> 100 µM	> 100 µM	> 100 µM	> 100 µM	> 100 µM	–	–	–	–	–	–	–	–	–	–	–	–	–
